This note sets out measurements from article PMC4150255 (Journal of medicinal chemistry, 2012).

In this experiment the test system is LNCaP C-81 cells. Description: cell proliferation assay. It is filed as cell-based, Human. To be noted: regular culture medium, 3 days treatment.

`O=C(NN=C1C=CC(=NOS(=O)(=O)c2ccccc2)C=C1)c1cc2ccccc2cc1O` [Compound A9]: the inhibition of proliferation entry is given as “up to 70%”.
For the molecule `O=C(c1ccc(O)c(NC(=O)c2cccc3ccccc23)c1)c1ccc(O)c(NC(=O)c2cccc3ccccc23)c1` [Compound A36], the inhibition of proliferation entry was “about 32%”.
